Test results reported in patent publication US10138227B2, “Heteroaryl substituted pyridines and methods of use” (AbbVie S.à.r.l., priority 2016, dated 2018).
pEC50: −log10 of the molar value.

Target: T1, CFTR ΔF508 mutant (Homo sapiens, UniProt P13569, DEL508-508)
T1 construct: expressed in transfected cells; host or cells: CFBE41o- cells transduced with adenoviral vectors
Test: YFP-halide influx assay for the CFTR-ΔF508 mutation
Assay type: cell-based
Conditions: CFBE41o- cells expressing CFTR ΔF508 and YFP reporter, forskolin 10.67 μM; for pEC50: (1-F/F0) vs concentration
Excerpt: The YFP halide influx assay measured the functionality of the cystic fibrosis Transmembrane Conductance regulator (CFTR) channels in the cystic fibrosis bronchial epithelium cell line CFBE41o-. The assay was used to evaluate the capacity of compounds to increase the open probability of existing CFTR channels in the membrane. It makes use of the observation that the yellow fluorescent protein (YFP) variant YFP H148Q, I152L, F47L has its fluorescence substantially quenched by halide ions like Cl^− and I^− (Galietta, L. J. V., Haggie, P. M., Verkman, A. S., 2001. Green fluorescent protein-based halide indicators with improved chloride and iodide affinities. FEBS Lett. 499, 220-224. doi:10.1016/S0014-5793(01)02561-3; Nagai, T., Ibata, K., Park, E. S., Kubota, M., Mikoshiba, K., Miyawaki, A., 2002. A variant of yellow fluorescent protein with fast and efficient maturation for cell-biological applications. Nat. Biotechnol. 20, 87-90. doi:10.1038/nbt0102-87).
For this purpose, CFBE410-cells were seeded in 384 well plates (3000 CFBE cells/well). One day after seeding, the CFBE cells were transduced with adenoviral vectors that direct the expression of the CFTR ΔF508 mutant and of the YFP reporter. Cells were incubated at 27° C., 5% CO2 for 24 hours so as to allow for the proper folding and migration to the membrane of the CFTR channel or treated with a CFTR modulator during 24 hours at 37° C.
The I-induced quenching of fluorescence was recorded on an immediately after injection of iodide for 2 minutes on an FDSS/μCell (Hamamatsu). The capacity of a compound to increase the channel opening was directly correlated with the decrease in fluorescence, and was expressed as (1-(fluorescence after 36 seconds (F)/fluorescence before injection (F0))) and an EC50 was derived from a (1-F/F0) vs compound concentration plot.

T1 sequence (P13569 with tags, fused parts or gaps DEL508-508): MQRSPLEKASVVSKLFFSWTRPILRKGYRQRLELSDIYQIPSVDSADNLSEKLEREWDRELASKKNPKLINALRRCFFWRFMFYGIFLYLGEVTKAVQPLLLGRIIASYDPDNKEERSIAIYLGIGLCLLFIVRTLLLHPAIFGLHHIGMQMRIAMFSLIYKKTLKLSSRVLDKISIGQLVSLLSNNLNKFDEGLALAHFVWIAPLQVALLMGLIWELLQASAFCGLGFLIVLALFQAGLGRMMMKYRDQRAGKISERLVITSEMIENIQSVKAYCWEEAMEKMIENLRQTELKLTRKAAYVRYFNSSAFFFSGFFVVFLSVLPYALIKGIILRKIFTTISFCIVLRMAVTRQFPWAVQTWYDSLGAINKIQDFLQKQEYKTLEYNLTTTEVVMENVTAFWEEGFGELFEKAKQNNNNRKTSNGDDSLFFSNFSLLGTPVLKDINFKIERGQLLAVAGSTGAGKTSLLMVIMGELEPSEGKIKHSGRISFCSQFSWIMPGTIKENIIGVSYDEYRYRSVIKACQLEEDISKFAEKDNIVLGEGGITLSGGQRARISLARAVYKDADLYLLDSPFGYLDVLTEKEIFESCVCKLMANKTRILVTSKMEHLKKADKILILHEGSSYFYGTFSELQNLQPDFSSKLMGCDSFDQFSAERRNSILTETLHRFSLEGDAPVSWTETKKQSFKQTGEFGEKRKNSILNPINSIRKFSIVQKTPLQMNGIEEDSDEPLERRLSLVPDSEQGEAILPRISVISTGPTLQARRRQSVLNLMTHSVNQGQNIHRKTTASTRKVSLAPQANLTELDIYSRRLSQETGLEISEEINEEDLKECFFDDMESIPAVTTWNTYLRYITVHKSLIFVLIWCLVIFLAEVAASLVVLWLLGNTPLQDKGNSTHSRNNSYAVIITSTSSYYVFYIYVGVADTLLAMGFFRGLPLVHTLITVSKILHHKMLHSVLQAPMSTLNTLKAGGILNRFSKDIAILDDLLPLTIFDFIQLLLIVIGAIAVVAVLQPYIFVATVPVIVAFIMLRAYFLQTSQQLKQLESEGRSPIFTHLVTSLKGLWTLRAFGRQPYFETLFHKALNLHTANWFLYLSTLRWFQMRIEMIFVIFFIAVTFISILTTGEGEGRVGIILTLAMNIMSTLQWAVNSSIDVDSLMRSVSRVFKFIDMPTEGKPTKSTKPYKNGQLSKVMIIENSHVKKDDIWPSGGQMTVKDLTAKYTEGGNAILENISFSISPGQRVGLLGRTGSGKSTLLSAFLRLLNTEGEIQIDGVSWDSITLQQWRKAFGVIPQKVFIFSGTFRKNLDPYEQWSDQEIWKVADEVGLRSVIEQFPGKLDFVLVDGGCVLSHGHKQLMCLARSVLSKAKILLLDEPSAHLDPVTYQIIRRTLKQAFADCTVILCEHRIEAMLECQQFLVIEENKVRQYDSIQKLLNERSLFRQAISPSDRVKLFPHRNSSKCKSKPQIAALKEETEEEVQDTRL

SMILES	% Activation	pEC50
Nc1cc(S(=O)(=O)c2ccc(OC(F)(F)F)cc2)cnc1-c1nnco1 [Compound 6, 2-(1,3,4-oxadiazol-2-yl)-5-[4-(trifluoromethoxy)benzene-1-sulfonyl]pyridin-3-amine]	86.03%	7.11
Nc1cc(S(=O)(=O)c2ccc(C(F)(F)F)cc2)cnc1-c1nnc(CO)o1 [Compound 7, (5-{3-amino-5-[4-(trifluoromethyl)benzene-1-sulfonyl]pyridin-2-yl}-1,3,4-oxadiazol-2-yl)methanol]	109.69%	8.24
NC(=O)c1nnc(-c2ncc(S(=O)(=O)c3ccc(OC(F)(F)F)cc3)cc2N)o1 [Compound 8, 5-{3-amino-5-[4-(trifluoromethoxy)benzene-1-sulfonyl]pyridin-2-yl}-1,3,4-oxadiazole-2-carboxamide]	93.73%	6.52
Nc1cc(S(=O)(=O)c2ccc(F)cc2)cnc1-c1nnc(CO)o1 [Compound 9, {5-[3-amino-5-(4-fluorobenzene-1-sulfonyl)pyridin-2-yl]-1,3,4-oxadiazol-2-yl}methanol]	104.65%	7.01
Nc1cc(S(=O)(=O)c2ccc(OC(F)(F)F)cc2)cnc1-c1nnc(C2CCCCC2)o1 [Compound 10, 2-(5-cyclohexyl-1,3,4-oxadiazol-2-yl)-5-[4-(trifluoromethoxy)benzene-1-sulfonyl]pyridin-3-amine]	106.5%	7.83
CO[C@@H](c1ccccc1)c1nnc(-c2ncc(S(=O)(=O)c3ccc(OC(F)(F)F)cc3)cc2N)o1 [Compound 11, 2-{5-[(S)-methoxy(phenyl)methyl]-1,3,4-oxadiazol-2-yl}-5-[4-(trifluoromethoxy)benzene-1-sulfonyl]pyridin-3-amine]	109.82%	7.46
Nc1cc(S(=O)(=O)c2ccc(OC(F)(F)F)cc2)cnc1-c1nnc(COCC2CC2)o1 [Compound 12, 2-{5-[(cyclopropylmethoxy)methyl]-1,3,4-oxadiazol-2-yl}-5-[4-(trifluoromethoxy)benzene-1-sulfonyl]pyridin-3-amine]	100.38%	8.07
Nc1cc(S(=O)(=O)c2ccc(OC(F)(F)F)cc2)cnc1-c1nnc(COc2ccccc2)o1 [Compound 13, 2-[5-(phenoxymethyl)-1,3,4-oxadiazol-2-yl]-5-[4-(trifluoromethoxy)benzene-1-sulfonyl]pyridin-3-amine]	100.57%	6.49
Nc1cc(S(=O)(=O)c2ccc(OC(F)(F)F)cc2)cnc1-c1nnc(COC2CCCC2)o1 [Compound 14, 2-{5-[(cyclopentyloxy)methyl]-1,3,4-oxadiazol-2-yl}-5-[4-(trifluoromethoxy)benzene-1-sulfonyl]pyridin-3-amine]	116.8%	7.17
Nc1cc(S(=O)(=O)c2ccc(OC(F)(F)F)cc2)cnc1-c1nnc(COC(F)(F)F)o1 [Compound 15, 5-[4-(trifluoromethoxy)benzene-1-sulfonyl]-2-{5-[(trifluoromethoxy)methyl]-1,3,4-oxadiazol-2-yl}pyridin-3-amine]	113.65%	8.16
Nc1cc(S(=O)(=O)c2ccc(OC(F)(F)F)cc2)cnc1-c1nnc(COC2CCOC2)o1 (stereo not drawn) [Compound 16, 2-(5-{[(oxolan-3-yl)oxy]methyl}-1,3,4-oxadiazol-2-yl)-5-[4-(trifluoromethoxy)benzene-1-sulfonyl]pyridin-3-amine]	110.75%	7.11
COCCOCc1nnc(-c2ncc(S(=O)(=O)c3ccc(OC(F)(F)F)cc3)cc2N)s1 [Compound 17, 2-{5-[(2-methoxyethoxy)methyl]-1,3,4-thiadiazol-2-yl}-5-[4-(trifluoromethoxy)benzene-1-sulfonyl]pyridin-3-amine]	117.3%	7.94
Nc1cc(S(=O)(=O)c2ccc(OC(F)(F)F)cc2)cnc1-c1nnc(CNC(=S)C2CC2)s1 [Compound 18, N-[(5-{3-amino-5-[4-(trifluoromethoxy)benzene-1-sulfonyl]pyridin-2-yl}-1,3,4-thiadiazol-2-yl)methyl]cyclopropanecarbothioamide]	106.2%	8.04
CO[C@@H](c1ccccc1)c1nnc(-c2ncc(S(=O)(=O)c3ccc(OC(F)(F)F)cc3)cc2N)s1 [Compound 19, 2-{5-[(S)-methoxy(phenyl)methyl]-1,3,4-thiadiazol-2-yl}-5-[4-(trifluoromethoxy)benzene-1-sulfonyl]pyridin-3-amine]	97.54%	6.46
C[C@@](O)(c1nnc(-c2ncc(S(=O)(=O)c3ccc(OC(F)(F)F)cc3)cc2N)s1)C(F)(F)F [Compound 20, (2S)-2-(5-{3-amino-5-[4-(trifluoromethoxy)benzene-1-sulfonyl]pyridin-2-yl}-1,3,4-thiadiazol-2-yl)-1,1,1-trifluoropropan-2-ol]	97.45%	8.09
CO[C@H](C)c1nnc(-c2ncc(S(=O)(=O)c3ccc(OC(F)(F)F)cc3)cc2N)s1 [Compound 21, 2-{5-[(1R)-1-methoxyethyl]-1,3,4-thiadiazol-2-yl}-5-[4-(trifluoromethoxy)benzene-1-sulfonyl]pyridin-3-amine]	109.42%	8.07
COC(C)c1nnc(-c2ncc(S(=O)(=O)c3ccc(OC(F)(F)F)cc3)cc2N)s1 (stereo not drawn) [Compound 22, 2-[5-(1-methoxyethyl)-1,3,4-thiadiazol-2-yl]-5-[4-(trifluoromethoxy)benzene-1-sulfonyl]pyridin-3-amine]	112.9%	7.82
CO[C@@H](C)c1nnc(-c2ncc(S(=O)(=O)c3ccc(OC(F)(F)F)cc3)cc2N)s1 [Compound 23, 2-{5-[(1S)-1-methoxyethyl]-1,3,4-thiadiazol-2-yl}-5-[4-(trifluoromethoxy)benzene-1-sulfonyl]pyridin-3-amine]	100.92%	7.43
Nc1cc(S(=O)(=O)c2ccc(OC(F)(F)F)cc2)cnc1-c1nnc(COCC2CC2)s1 [Compound 24, 2-{5-[(cyclopropylmethoxy)methyl]-1,3,4-thiadiazol-2-yl}-5-[4-(trifluoromethoxy)benzene-1-sulfonyl]pyridin-3-amine]	100.82%	7.86
CCOCc1nnc(-c2ncc(S(=O)(=O)c3ccc(OC(F)(F)F)cc3)cc2N)s1 [Compound 25, 2-[5-(ethoxymethyl)-1,3,4-thiadiazol-2-yl]-5-[4-(trifluoromethoxy)benzene-1-sulfonyl]pyridin-3-amine]	104.42%	8.36
COCc1nnc(-c2ncc(S(=O)(=O)c3ccc(OC(F)(F)F)cc3)cc2N)s1 [Compound 26, 2-[5-(methoxymethyl)-1,3,4-thiadiazol-2-yl]-5-[4-(trifluoromethoxy)benzene-1-sulfonyl]pyridin-3-amine]	101.69%	8.48
Nc1cc(S(=O)(=O)c2ccc(OC(F)(F)F)cc2)cnc1-c1nnc(COc2cccnc2)s1 [Compound 27, 2-(5-{[(pyridin-3-yl)oxy]methyl}-1,3,4-thiadiazol-2-yl)-5-[4-(trifluoromethoxy)benzene-1-sulfonyl]pyridin-3-amine]	96.45%	6.82
Nc1cc(S(=O)(=O)c2ccc(OC(F)(F)F)cc2)cnc1-c1nnc(COC(F)(F)F)s1 [Compound 28, 5-[4-(trifluoromethoxy)benzene-1-sulfonyl]-2-{5-[(trifluoromethoxy)methyl]-1,3,4-thiadiazol-2-yl}pyridin-3-amine]	50.3%	–
Nc1cc(S(=O)(=O)c2ccc(OC(F)(F)F)cc2)cnc1-c1nnc(COC2CCOC2)s1 (stereo not drawn) [Compound 29, 2-(5-{[(oxolan-3-yl)oxy]methyl}-1,3,4-thiadiazol-2-yl)-5-[4-(trifluoromethoxy)benzene-1-sulfonyl]pyridin-3-amine]	102.9%	7.79
Nc1cc(S(=O)(=O)c2ccc(OC(F)(F)F)cc2)cnc1-c1nnc(COC(F)F)s1 [Compound 30, 2-{5-[(difluoromethoxy)methyl]-1,3,4-thiadiazol-2-yl}-5-[4-(trifluoromethoxy)benzene-1-sulfonyl]pyridin-3-amine]	94.98%	8.44
Nc1cc(S(=O)(=O)c2ccc(OC(F)(F)F)cc2)cnc1-c1nnc(C[C@@H]2CCCO2)s1 [Compound 31, 2-(5-{[(2S)-oxolan-2-yl]methyl}-1,3,4-thiadiazol-2-yl)-5-[4-(trifluoromethoxy)benzene-1-sulfonyl]pyridin-3-amine]	102.85%	7.43
